What was measured:
[1] = target: T1, endogenous full-length progesterone receptor (Homo sapiens, UniProt P06401); conditions: Wang et al. 1994; cited from earlier work
T1 sequence (P06401 1-933): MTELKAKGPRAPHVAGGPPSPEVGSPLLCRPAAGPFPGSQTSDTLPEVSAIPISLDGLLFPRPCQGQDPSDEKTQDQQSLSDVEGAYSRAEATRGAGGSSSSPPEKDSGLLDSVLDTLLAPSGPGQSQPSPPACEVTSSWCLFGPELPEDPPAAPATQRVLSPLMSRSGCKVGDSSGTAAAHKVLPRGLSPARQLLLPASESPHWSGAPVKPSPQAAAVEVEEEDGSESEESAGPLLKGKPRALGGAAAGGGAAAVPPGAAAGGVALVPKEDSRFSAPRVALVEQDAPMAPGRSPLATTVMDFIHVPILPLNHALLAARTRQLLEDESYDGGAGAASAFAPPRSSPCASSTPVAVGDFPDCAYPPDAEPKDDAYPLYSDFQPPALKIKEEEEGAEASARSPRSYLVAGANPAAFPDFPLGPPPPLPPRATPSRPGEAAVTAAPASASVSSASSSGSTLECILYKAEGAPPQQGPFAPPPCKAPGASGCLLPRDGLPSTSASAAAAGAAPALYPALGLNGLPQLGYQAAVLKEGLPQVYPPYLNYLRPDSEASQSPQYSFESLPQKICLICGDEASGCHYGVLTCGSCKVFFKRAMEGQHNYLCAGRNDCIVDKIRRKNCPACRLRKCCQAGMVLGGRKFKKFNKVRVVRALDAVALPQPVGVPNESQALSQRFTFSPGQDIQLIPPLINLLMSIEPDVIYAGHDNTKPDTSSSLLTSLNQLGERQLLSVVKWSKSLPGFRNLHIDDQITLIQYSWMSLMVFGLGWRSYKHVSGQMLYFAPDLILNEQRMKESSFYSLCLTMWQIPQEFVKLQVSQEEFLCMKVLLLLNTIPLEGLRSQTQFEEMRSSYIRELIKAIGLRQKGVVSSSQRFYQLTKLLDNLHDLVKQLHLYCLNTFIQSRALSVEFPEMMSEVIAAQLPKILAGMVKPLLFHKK

[2] = system: MycER-expressing CNS stem cells; test: Growth of MycER-expressing human CNS stem cells in different mitogens; assay type: cell-based
Method: The same human CNS stem cell preparation was also subjected to MycER-retrovirus infection and grown in bFGF alone or in bFGF and EGF. […] As with the unmodified parent cells, the MycER cells also retained a 60 hour doubling time in bFGF alone. […] In the absence of MycER expression, the same three conditions yielded a similar pattern of growth, but with less stability.

rat CNS stem cells = test: Doubling time of rat CNS stem cells in N2 medium with bFGF; assay type: cell-based; conditions: bFGF as sole mitogen
Method: (§1) The doubling time for human CNS stem cells in N2 medium with bFGF as the sole mitogen is approximately 60 hours which is markedly slower than 24 hours for rat CNS stem cells under the identical culture conditions. This may be due to a species difference in certain cell-autonomous properties of the cells such as a difference in DNA replication rate or in other mitotic phases, G1 or G2, of the cell cycle. We investigated other factors to accelerate the mitotic rate of human CNS stem cells.

human CNS stem cells = test: Mitotic rate (24-hour BrdU incorporation) and doubling time of human CNS stem cells with growth factors; assay type: cell-based; conditions: N2 medium, factor supplied daily
Method: as §1
Many purified recombinant human growth factors were tested for the ability to enhance the mitogenic activity of bFGF. The mitotic rate of human CNS stem cells was assessed by measuring the proportion of the cells which have incorporated the mitotic label, bromodeoxyuridine (BrdU), during a 24-hour period. Each growth factor was supplied daily to the culture in addition to bFGF. Only the combination of bFGF+EGF and bFGF+TGFα (transforming growth factor-alpha) accelerated beyond the bFGF-induced mitotic rate of the human CNS stem cells. In both conditions, the doubling time of the cells […] 1.5 times to 40 hours over bFGF alone. Combination of bFGF and fetal bovine serum at 1% or at 10% also accelerated the BrdU-incorporation rate of bFGF-induced mitotic rate of CNS stem cells to a similar rate. • 2. Resistance of CNS Stem Cells Against Spontaneous Differentiation

Row | Compound | activation of full-length receptor [1] | doubling time [2] | doubling time (rat CNS stem cells) | doubling time (human CNS stem cells)
1 | CC#C[C@]1(O)CC[C@H]2[C@@H]3CCC4=CC(=O)CCC4=C3[C@@H](c3ccc(N(C)C)cc3)C[C@@]21C [RU38486] | does not activate |  |  | 
2 | bFGF: basic fibroblast growth factor, mitogen for CNS stem cells |  | 60 h | 24 h | approximately 60 hours

From patent US9465025B2, “Stable neural stem cell lines” (Neuralstem, Inc., priority 1996, dated 2016)
